Measured values: ChEMBL document CHEMBL5303573, “Mapping human microbiome drug metabolism by gut bacteria and their genes” (Nature, 2019)

Key:
[1] = The drug is tested on Bifidobacterium breve strain: DSM20213 for biotransformation. The drug concentrations were measured before and after a 12-h incubation by liquid-chromatography-coupled mass spectrometry (LC–MS); details: 2 µM
[2] = The drug is tested on Collinsella aerofaciens strain: ATCC25986 for biotransformation. The drug concentrations were measured before and after a 12-h incubation by liquid-chromatography-coupled mass spectrometry (LC–MS); details: 2 µM
[3] = The drug is tested on Collinsella intestinalis strain: DSM13280 for biotransformation. The drug concentrations were measured before and after a 12-h incubation by liquid-chromatography-coupled mass spectrometry (LC–MS); details: 2 µM
[4] = The drug is tested on Alistipes indistinctus strain: DSM22520 for biotransformation. The drug concentrations were measured before and after a 12-h incubation by liquid-chromatography-coupled mass spectrometry (LC–MS); details: 2 µM
[5] = The drug is tested on Bacteroides caccae strain: ATCC43185 for biotransformation. The drug concentrations were measured before and after a 12-h incubation by liquid-chromatography-coupled mass spectrometry (LC–MS); details: 2 µM
[6] = The drug is tested on Bacteroides cellulosilyticus strain: DSM14838 for biotransformation. The drug concentrations were measured before and after a 12-h incubation by liquid-chromatography-coupled mass spectrometry (LC–MS); details: 2 µM
[7] = The drug is tested on Bacteroides finegoldii strain: DSM17565 for biotransformation. The drug concentrations were measured before and after a 12-h incubation by liquid-chromatography-coupled mass spectrometry (LC–MS); details: 2 µM
[8] = The drug is tested on Bacteroides fragilis strain: HMW610 for biotransformation. The drug concentrations were measured before and after a 12-h incubation by liquid-chromatography-coupled mass spectrometry (LC–MS); details: 2 µM
[9] = The drug is tested on Bacteroides fragilis strain: ATCC43859 for biotransformation. The drug concentrations were measured before and after a 12-h incubation by liquid-chromatography-coupled mass spectrometry (LC–MS); details: 2 µM
[10] = The drug is tested on Bacteroides ovatus strain: ATCC8483 for biotransformation. The drug concentrations were measured before and after a 12-h incubation by liquid-chromatography-coupled mass spectrometry (LC–MS); details: 2 µM
[11] = The drug is tested on Bacteroides pectinophilus strain: ATCC43243 for biotransformation. The drug concentrations were measured before and after a 12-h incubation by liquid-chromatography-coupled mass spectrometry (LC–MS); details: 2 µM
[12] = The drug is tested on Bacteroides sp. WH2 strain: WH2 for biotransformation. The drug concentrations were measured before and after a 12-h incubation by liquid-chromatography-coupled mass spectrometry (LC–MS); details: bacteroides sp. wh2, 12 h, 2 µM
[13] = The drug is tested on Bacteroides xylanisolvens strain: DSM18836 for biotransformation. The drug concentrations were measured before and after a 12-h incubation by liquid-chromatography-coupled mass spectrometry (LC–MS); details: 2 µM
[14] = The drug is tested on Parabacteroides merdae strain: ATCC43184 for biotransformation. The drug concentrations were measured before and after a 12-h incubation by liquid-chromatography-coupled mass spectrometry (LC–MS); details: 2 µM
[15] = The drug is tested on Anaerococcus hydrogenalis strain: DSM7454 for biotransformation. The drug concentrations were measured before and after a 12-h incubation by liquid-chromatography-coupled mass spectrometry (LC–MS); details: 2 µM
[16] = The drug is tested on Blautia luti strain: DSM14534 for biotransformation. The drug concentrations were measured before and after a 12-h incubation by liquid-chromatography-coupled mass spectrometry (LC–MS); type: ADME; set-up: dose 2 uM, timepoint 0 vs 12 hours; details: 2 µM
[17] = The drug is tested on Clostridium asparagiforme strain: DSM15981 for biotransformation. The drug concentrations were measured before and after a 12-h incubation by liquid-chromatography-coupled mass spectrometry (LC–MS); type: ADME; set-up: dose 2 uM, timepoint 0 vs 12 hours; details: enterocloster asparagiformis, 2 µM
[18] = The drug is tested on Clostridium scindens strain: ATCC35704 for biotransformation. The drug concentrations were measured before and after a 12-h incubation by liquid-chromatography-coupled mass spectrometry (LC–MS); details: 2 µM
[19] = The drug is tested on Clostridium sporogenes strain: ATCC15579 for biotransformation. The drug concentrations were measured before and after a 12-h incubation by liquid-chromatography-coupled mass spectrometry (LC–MS); details: 2 µM
[20] = The drug is tested on Clostridium symbiosum strain: ATCC14940 for biotransformation. The drug concentrations were measured before and after a 12-h incubation by liquid-chromatography-coupled mass spectrometry (LC–MS); details: 2 µM
[21] = The drug is tested on Dorea formicigenerans strain: ATCC27755 for biotransformation. The drug concentrations were measured before and after a 12-h incubation by liquid-chromatography-coupled mass spectrometry (LC–MS); details: 2 µM
[22] = The drug is tested on Enterococcus faecalis strain: V583 for biotransformation. The drug concentrations were measured before and after a 12-h incubation by liquid-chromatography-coupled mass spectrometry (LC–MS); details: 2 µM
[23] = The drug is tested on Eubacterium rectale strain: ATCC33656 for biotransformation. The drug concentrations were measured before and after a 12-h incubation by liquid-chromatography-coupled mass spectrometry (LC–MS); details: agathobacter rectalis, 2 µM
[24] = The drug is tested on Eubacterium ventriosum strain: ATCC27560 for biotransformation. The drug concentrations were measured before and after a 12-h incubation by liquid-chromatography-coupled mass spectrometry (LC–MS); type: ADME; set-up: dose 2 uM, timepoint 0 vs 12 hours; details: 2 µM
[25] = The drug is tested on Ruminococcus gnavus strain: ATCC29149 for biotransformation. The drug concentrations were measured before and after a 12-h incubation by liquid-chromatography-coupled mass spectrometry (LC–MS); details: mediterraneibacter gnavus, 2 µM
[26] = The drug is tested on Ruminococcus lactaris strain: ATCC29176 for biotransformation. The drug concentrations were measured before and after a 12-h incubation by liquid-chromatography-coupled mass spectrometry (LC–MS); details: 2 µM
[27] = The drug is tested on Ruminococcus torques strain: ATCC27756 for biotransformation. The drug concentrations were measured before and after a 12-h incubation by liquid-chromatography-coupled mass spectrometry (LC–MS); type: ADME; set-up: dose 2 uM, timepoint 0 vs 12 hours; details: 2 µM
[28] = The drug is tested on Subdoligranulum variabile strain: DSM15176 for biotransformation. The drug concentrations were measured before and after a 12-h incubation by liquid-chromatography-coupled mass spectrometry (LC–MS); details: 2 µM
[29] = The drug is tested on Edwardsiella tarda strain: ATCC23685 for biotransformation. The drug concentrations were measured before and after a 12-h incubation by liquid-chromatography-coupled mass spectrometry (LC–MS); details: 2 µM
[30] = The drug is tested on Escherichia coli strain: BW25113 for biotransformation. The drug concentrations were measured before and after a 12-h incubation by liquid-chromatography-coupled mass spectrometry (LC–MS); details: 2 µM
[31] = The drug is tested on Providencia rettgeri strain: DSM1131 for biotransformation. The drug concentrations were measured before and after a 12-h incubation by liquid-chromatography-coupled mass spectrometry (LC–MS); type: ADME; set-up: dose 2 uM, timepoint 0 vs 12 hours; details: 2 µM
[32] = bacteroides fragilis, 12 h, 2 µM
Description: The drug is tested on Bacteroides fragilis strain: NCTC 9343 for biotransformation. The drug concentrations were measured before and after a 12-h incubation by liquid-chromatography-coupled mass spectrometry (LC–MS)

[33] = bacteroides intestinalis, 12 h, 2 µM
Description: The drug is tested on Bacteroides intestinalis strain: DSM17393 for biotransformation. The drug concentrations were measured before and after a 12-h incubation by liquid-chromatography-coupled mass spectrometry (LC–MS)

[34] = bacteroides thetaiotaomicron, 12 h, 2 µM
Description: The drug is tested on Bacteroides thetaiotaomicron strain: VPI-5482 for biotransformation. The drug concentrations were measured before and after a 12-h incubation by liquid-chromatography-coupled mass spectrometry (LC–MS)

[35] = parabacteroides distasonis, 12 h, 2 µM
Description: The drug is tested on Parabacteroides distasonis strain: ATCC8503 for biotransformation. The drug concentrations were measured before and after a 12-h incubation by liquid-chromatography-coupled mass spectrometry (LC–MS)

[36] = parabacteroides johnsonii, 12 h, 2 µM
Description: The drug is tested on Parabacteroides johnsonii strain: DSM18315 for biotransformation. The drug concentrations were measured before and after a 12-h incubation by liquid-chromatography-coupled mass spectrometry (LC–MS)

[37] = segatella copri, 12 h, 2 µM
Description: The drug is tested on Prevotella copri strain: DSM18205 for biotransformation. The drug concentrations were measured before and after a 12-h incubation by liquid-chromatography-coupled mass spectrometry (LC–MS)

[38] = anaerostipes sp., 12 h, 2 µM
Description: The drug is tested on Anaerostipes sp. strain: fecal isolate for biotransformation. The drug concentrations were measured before and after a 12-h incubation by liquid-chromatography-coupled mass spectrometry (LC–MS)

[39] = enterocloster bolteae, 12 h, 2 µM
Description: The drug is tested on Clostridium bolteae strain: ATCCBAA-613 for biotransformation. The drug concentrations were measured before and after a 12-h incubation by liquid-chromatography-coupled mass spectrometry (LC–MS)

[40] = roseburia intestinalis, 12 h, 2 µM
Description: The drug is tested on Roseburia intestinalis strain: L1-82 for biotransformation. The drug concentrations were measured before and after a 12-h incubation by liquid-chromatography-coupled mass spectrometry (LC–MS)

Q: Which “Bacterial Biotransformation” value [1] does the source give for `Cc1ccc(-c2cc(C(F)(F)F)nn2-c2ccc(S(N)(=O)=O)cc2)cc1` [CELECOXIB] here?
A: Compound NOT metabolized

Q: What about the “Bacterial Biotransformation” value [2] of the same compound?
A: Compound NOT metabolized

Q: And the “Bacterial Biotransformation” value [3]?
A: Compound NOT metabolized

Q: And the “Bacterial Biotransformation” value [4]?
A: Compound NOT metabolized

Q: What about the “Bacterial Biotransformation” value [5] of the same compound?
A: Compound NOT metabolized

Q: And the “Bacterial Biotransformation” value [6]?
A: Compound NOT metabolized

Q: What about the “Bacterial Biotransformation” value [7] of the same compound?
A: Compound NOT metabolized

Q: And the “Bacterial Biotransformation” value [8]?
A: Compound NOT metabolized

Q: And the “Bacterial Biotransformation” value [9]?
A: Compound NOT metabolized

Q: And the “Bacterial Biotransformation” value [10]?
A: Compound NOT metabolized

Q: What about the “Bacterial Biotransformation” value [11] of the same compound?
A: Compound NOT metabolized

Q: What about the “Bacterial Biotransformation” value [12] of the same compound?
A: Compound NOT metabolized

Q: And the “Bacterial Biotransformation” value [13]?
A: Compound NOT metabolized

Q: And the “Bacterial Biotransformation” value [14]?
A: Compound NOT metabolized

Q: What about the “Bacterial Biotransformation” value [15] of the same compound?
A: Compound NOT metabolized

Q: And the “Bacterial Biotransformation” value [16]?
A: Compound NOT metabolized

Q: And the “Bacterial Biotransformation” value [17]?
A: Compound NOT metabolized

Q: What about the “Bacterial Biotransformation” value [18] of the same compound?
A: Compound NOT metabolized

Q: And the “Bacterial Biotransformation” value [19]?
A: Compound metabolized

Q: What about the “Bacterial Biotransformation” value [20] of the same compound?
A: Compound NOT metabolized

Q: And the “Bacterial Biotransformation” value [21]?
A: Compound NOT metabolized

Q: And the “Bacterial Biotransformation” value [22]?
A: Compound NOT metabolized

Q: What about the “Bacterial Biotransformation” value [23] of the same compound?
A: Compound NOT metabolized

Q: And the “Bacterial Biotransformation” value [24]?
A: Compound NOT metabolized

Q: And the “Bacterial Biotransformation” value [25]?
A: Compound NOT metabolized

Q: What about the “Bacterial Biotransformation” value [26] of the same compound?
A: Compound NOT metabolized

Q: What about the “Bacterial Biotransformation” value [27] of the same compound?
A: Compound NOT metabolized

Q: What about the “Bacterial Biotransformation” value [28] of the same compound?
A: Compound NOT metabolized

Q: What about the “Bacterial Biotransformation” value [29] of the same compound?
A: Compound NOT metabolized

Q: What about the “Bacterial Biotransformation” value [30] of the same compound?
A: Compound NOT metabolized

Q: And the “Bacterial Biotransformation” value [31]?
A: Compound NOT metabolized

Q: And the “Bacterial Biotransformation” value [32]?
A: Compound NOT metabolized

Q: What about the “Bacterial Biotransformation” value [33] of the same compound?
A: Compound NOT metabolized

Q: And the “Bacterial Biotransformation” value [34]?
A: Compound NOT metabolized

Q: And the “Bacterial Biotransformation” value [35]?
A: Compound NOT metabolized

Q: What about the “Bacterial Biotransformation” value [36] of the same compound?
A: Compound NOT metabolized

Q: And the “Bacterial Biotransformation” value [37]?
A: Compound metabolized

Q: And the “Bacterial Biotransformation” value [38]?
A: Compound NOT metabolized

Q: What about the “Bacterial Biotransformation” value [39] of the same compound?
A: Compound NOT metabolized

Q: What about the “Bacterial Biotransformation” value [40] of the same compound?
A: Compound NOT metabolized
